According to ChEMBL document CHEMBL1201862, “PubChem BioAssay data set” (2004):
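Each compound was tested at five concentrations against cells in 96-well plates for 48 hours. Here, GI50 denotes the concentration required for 50% inhibition of growth.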 The source made the active and inactive calls. No stated cut-off is given here; in the data, active = GI50 up to about 1.1 µM and inactive = higher.

Columns and labels:
Assay in all cases: NCI-60 cell line screen, 48 h
[1] = test system: CCRF-CEM
[2] = test system: HOP-62
[3] = test system: HT-29
[4] = test system: K562
[5] = test system: LXFL 529
[6] = test system: MOLT-4
[7] = test system: Malme-3M
[8] = test system: NCI-H522
[9] = test system: OVCAR-5
[10] = test system: RPMI-8226
[11] = test system: RXF 393
[12] = test system: SF-268
[13] = test system: SF-295
[14] = test system: SK-MEL-28
[15] = test system: UACC-257
[16] = test system: A498
[17] = test system: SK-MEL-5
[18] = test system: BT-549
[19] = test system: HOP-92
[20] = test system: MDA-MB-231

| Structure (SMILES) | GI50 [1] | GI50 [2] | GI50 [3] | GI50 [4] | GI50 [5] | GI50 [6] | GI50 [7] | GI50 [8] | GI50 [9] | GI50 [10] | GI50 [11] | GI50 [12] | GI50 [13] | GI50 [14] | GI50 [15] | GI50 [16] | GI50 [17] | GI50 [18] | GI50 [19] | GI50 [20] |
| --- | --- | --- | --- | --- | --- | --- | --- | --- | --- | --- | --- | --- | --- | --- | --- | --- | --- | --- | --- | --- |
| O=C1CC23CC(=O)CC2(C1)c1ccccc1C3=O (stereo unspecified) | > 100 µM (inactive) | > 100 µM (inactive) | > 100 µM (inactive) | > 100 µM (inactive) | > 100 µM (inactive) | > 100 µM (inactive) | > 100 µM (inactive) | > 100 µM (inactive) | > 100 µM (inactive) | > 100 µM (inactive) | 40.6 µM (inactive) | > 100 µM (inactive) | > 100 µM (inactive) | > 100 µM (inactive) | > 100 µM (inactive) | – | – | – | – | – |
| C=C1C[C@]23CCC4C(C)(C)C(=O)CC[C@]4(C)C2C[C@H]1C(O)C3=O (stereo partly specified) | > 75 µM (inactive) | > 75 µM (inactive) | – | > 75 µM (inactive) | > 75 µM (inactive) | > 75 µM (inactive) | > 75 µM (inactive) | > 75 µM (inactive) | – | > 75 µM (inactive) | > 75 µM (inactive) | > 75 µM (inactive) | > 75 µM (inactive) | > 75 µM (inactive) | > 75 µM (inactive) | > 75 µM (inactive) | > 75 µM (inactive) | – | – | – |
| NC(=O)c1ccc(S(=O)(=NS(=O)(=O)c2ccccc2)c2ccc(C(N)=O)cc2)cc1 | > 100 µM (inactive) | > 100 µM (inactive) | > 100 µM (inactive) | > 100 µM (inactive) | – | > 100 µM (inactive) | > 100 µM (inactive) | > 100 µM (inactive) | > 100 µM (inactive) | > 100 µM (inactive) | > 100 µM (inactive) | > 100 µM (inactive) | > 100 µM (inactive) | > 100 µM (inactive) | > 100 µM (inactive) | > 100 µM (inactive) | > 100 µM (inactive) | > 100 µM (inactive) | > 100 µM (inactive) | > 100 µM (inactive) |
| COc1ccc(CNc2nc3ccccc3nc2-c2cccs2)cc1 | 25.9 µM (inactive) | > 100 µM (inactive) | 18.9 µM (inactive) | 23.6 µM (inactive) | – | 5.31 µM (inactive) | 50.1 µM (inactive) | 23.5 µM (inactive) | > 100 µM (inactive) | 21.5 µM (inactive) | 23.8 µM (inactive) | > 100 µM (inactive) | 46.7 µM (inactive) | > 100 µM (inactive) | 31.2 µM (inactive) | 29.4 µM (inactive) | 23.8 µM (inactive) | 22.1 µM (inactive) | 16.6 µM (inactive) | 23.6 µM (inactive) |
| NC(C(=O)O)C(O)c1c[nH]cn1 (stereo unspecified) | > 100 µM (inactive) | > 100 µM (inactive) | > 100 µM (inactive) | > 100 µM (inactive) | – | > 100 µM (inactive) | > 100 µM (inactive) | > 100 µM (inactive) | > 100 µM (inactive) | > 100 µM (inactive) | > 100 µM (inactive) | > 100 µM (inactive) | > 100 µM (inactive) | > 100 µM (inactive) | > 100 µM (inactive) | > 100 µM (inactive) | > 100 µM (inactive) | > 100 µM (inactive) | > 100 µM (inactive) | > 100 µM (inactive) |
| C[C@]12CC[C@H]3[C@@H](CCC4=CC(=O)C=C[C@@]43OC(=O)C(F)(F)F)[C@@H]1CCC2=O | > 100 µM (inactive) | > 100 µM (inactive) | > 100 µM (inactive) | > 100 µM (inactive) | – | > 95.5 µM (inactive) | 0.558 µM (active) | > 84.1 µM (inactive) | > 100 µM (inactive) | > 100 µM (inactive) | > 100 µM (inactive) | > 100 µM (inactive) | > 100 µM (inactive) | > 100 µM (inactive) | > 100 µM (inactive) | > 100 µM (inactive) | > 100 µM (inactive) | > 100 µM (inactive) | > 100 µM (inactive) | > 100 µM (inactive) |
| CC(O)C1(CNc2cc(Cl)nc(N)n2)CCCC1 (stereo unspecified) | > 100 µM (inactive) | > 100 µM (inactive) | > 100 µM (inactive) | > 100 µM (inactive) | – | > 100 µM (inactive) | > 100 µM (inactive) | > 100 µM (inactive) | > 100 µM (inactive) | > 100 µM (inactive) | > 100 µM (inactive) | > 100 µM (inactive) | > 100 µM (inactive) | > 100 µM (inactive) | > 100 µM (inactive) | > 100 µM (inactive) | > 100 µM (inactive) | > 100 µM (inactive) | 98.9 µM (inactive) | > 100 µM (inactive) |
| NCC(=O)NC(CO)C(=O)O (stereo unspecified) | > 100 µM (inactive) | > 100 µM (inactive) | > 100 µM (inactive) | > 100 µM (inactive) | – | > 27.5 µM (inactive) | > 100 µM (inactive) | > 100 µM (inactive) | > 100 µM (inactive) | > 100 µM (inactive) | > 100 µM (inactive) | > 100 µM (inactive) | > 100 µM (inactive) | > 100 µM (inactive) | > 100 µM (inactive) | > 100 µM (inactive) | > 100 µM (inactive) | > 100 µM (inactive) | > 100 µM (inactive) | > 100 µM (inactive) |
| Oc1c(CN2CCOCC2)ccc2cccnc12 | 2.54 µM (inactive) | > 10 µM (inactive) | > 10 µM (inactive) | 4.4 µM (inactive) | – | 4.11 µM (inactive) | > 10 µM (inactive) | 2.62 µM (inactive) | > 10 µM (inactive) | > 10 µM (inactive) | > 10 µM (inactive) | > 10 µM (inactive) | > 10 µM (inactive) | > 10 µM (inactive) | > 10 µM (inactive) | > 10 µM (inactive) | > 10 µM (inactive) | 1.51 µM (inactive) | > 10 µM (inactive) | > 10 µM (inactive) |
| Nc1nc(Cl)cc(NCC2(CO)COC2)n1 | > 100 µM (inactive) | > 100 µM (inactive) | > 100 µM (inactive) | > 100 µM (inactive) | – | > 10 µM (inactive) | > 100 µM (inactive) | > 100 µM (inactive) | > 100 µM (inactive) | > 100 µM (inactive) | > 100 µM (inactive) | > 100 µM (inactive) | > 100 µM (inactive) | > 100 µM (inactive) | > 100 µM (inactive) | > 100 µM (inactive) | > 100 µM (inactive) | > 100 µM (inactive) | > 10 µM (inactive) | > 100 µM (inactive) |
| C[C@H](CCC1=NCCN1)[C@H]1CC[C@H]2[C@@H]3CC[C@@H]4C[C@H](O)CC[C@]4(C)[C@H]3CC[C@]12C | 4.08 µM (inactive) | 3.46 µM (inactive) | 0.575 µM (active) | 2.49 µM (inactive) | – | 2.7 µM (inactive) | 2.44 µM (inactive) | 5.41 µM (inactive) | 10.7 µM (inactive) | 3.13 µM (inactive) | 12.2 µM (inactive) | 10.6 µM (inactive) | 3.4 µM (inactive) | 2.08 µM (inactive) | 2.55 µM (inactive) | 14.9 µM (inactive) | 1.63 µM (inactive) | 14.4 µM (inactive) | 3.3 µM (inactive) | 5.78 µM (inactive) |
